Three compounds from ChEMBL document CHEMBL4118098, “Discovery of DS28120313 as a potent orally active hepcidin production inhibitor: Design and optimization of novel 4,6-disubstituted indazole derivatives” (Bioorg Med Chem Lett, 2017) can be followed below.

Broadly, the inhibition is the change of the read-out against control, counted positive when it falls.

For assay [1], the system named is Tyrosine-protein kinase ABL1 (Homo sapiens), P00519 [E255K]. The assay can be described thus: Inhibition of ABL1 E255K mutant (unknown origin) at 0.164 uM relative to control.
Assay [2] has as its target Ribosomal protein S6 kinase alpha-2 (Homo sapiens) (UniProt Q15349). The assay can be described thus: Inhibition of RSK3 (unknown origin) at 0.164 uM relative to control.
The species named for assay [3] is Homo sapiens. The assay can be described thus: Inhibition of PKA (unknown origin) at 0.164 uM relative to control.
The target in assay [4] is MAP/microtubule affinity-regulating kinase 4 (Homo sapiens) (UniProt Q96L34). Description: Inhibition of MARK4 (unknown origin) at 0.164 uM relative to control.
MAP/microtubule affinity-regulating kinase 4 (Homo sapiens), sequence (Q96L34 whole entry): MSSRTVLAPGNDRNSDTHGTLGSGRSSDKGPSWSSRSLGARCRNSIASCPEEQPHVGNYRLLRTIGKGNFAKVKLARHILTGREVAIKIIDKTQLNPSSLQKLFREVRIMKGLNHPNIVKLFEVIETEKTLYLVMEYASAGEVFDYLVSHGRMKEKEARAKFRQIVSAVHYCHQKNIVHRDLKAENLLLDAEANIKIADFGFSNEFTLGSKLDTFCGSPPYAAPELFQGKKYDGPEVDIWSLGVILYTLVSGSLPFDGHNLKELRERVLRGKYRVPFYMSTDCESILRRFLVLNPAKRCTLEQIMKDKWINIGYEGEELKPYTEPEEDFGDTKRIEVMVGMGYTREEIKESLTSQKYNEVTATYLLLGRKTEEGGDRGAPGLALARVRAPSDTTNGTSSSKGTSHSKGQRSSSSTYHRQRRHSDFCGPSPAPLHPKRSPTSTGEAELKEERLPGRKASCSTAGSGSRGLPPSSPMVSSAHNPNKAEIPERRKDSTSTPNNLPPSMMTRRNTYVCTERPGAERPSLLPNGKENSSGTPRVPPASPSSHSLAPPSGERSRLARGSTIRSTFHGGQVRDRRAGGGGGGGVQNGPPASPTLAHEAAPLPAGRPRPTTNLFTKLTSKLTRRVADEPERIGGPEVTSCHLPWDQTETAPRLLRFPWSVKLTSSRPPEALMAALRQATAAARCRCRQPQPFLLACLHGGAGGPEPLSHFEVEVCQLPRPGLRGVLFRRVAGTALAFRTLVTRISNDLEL
Assay [5] addresses Ephrin type-A receptor 1 (Homo sapiens) (UniProt P21709). The assay can be described thus: Inhibition of EPHA1 (unknown origin) at 0.164 uM relative to control.
Assay [6] has as its target T1, Testis-specific serine/threonine-protein kinase 2 (Homo sapiens) (UniProt Q96PF2).
T1 sequence (whole entry): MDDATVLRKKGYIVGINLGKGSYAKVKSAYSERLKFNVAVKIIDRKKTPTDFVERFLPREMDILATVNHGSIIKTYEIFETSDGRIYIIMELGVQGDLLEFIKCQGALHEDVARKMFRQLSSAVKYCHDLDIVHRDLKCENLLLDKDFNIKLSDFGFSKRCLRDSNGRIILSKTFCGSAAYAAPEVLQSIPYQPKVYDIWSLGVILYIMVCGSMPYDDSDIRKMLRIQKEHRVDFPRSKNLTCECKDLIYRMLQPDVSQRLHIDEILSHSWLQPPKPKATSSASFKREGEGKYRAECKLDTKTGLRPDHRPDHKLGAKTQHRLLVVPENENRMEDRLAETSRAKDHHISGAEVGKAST
Description: Inhibition of TSSK2 (unknown origin) at 0.164 uM relative to control.

The target in assay [7] is Rho-associated protein kinase 1 (Homo sapiens) (UniProt Q13464). The assay can be described thus: Inhibition of ROCK1 (unknown origin) at 0.45 uM relative to control.
Assay [8] concerns the target Ribosomal protein S6 kinase (Homo sapiens) (UniProt P51812+Q9UBS0+O75676+Q15349+O75582+P23443+Q9UK32+Q15418). Description: Inhibition of p70S6K (unknown origin) at 0.45 uM relative to control. The assay is classed as protein assay.
Assay [9] has as its target Tyrosine-protein kinase receptor UFO (Homo sapiens) (UniProt P30530). Description: Inhibition of AXL (unknown origin) at 0.19 uM relative to control.
In assay [10] the target is Inhibitor of nuclear factor kappa-B kinase subunit beta (Homo sapiens) (UniProt O14920). Description: Inhibition of IKK-beta (unknown origin) at 0.19 uM relative to control.
Assay [11] deals with Casein kinase I isoform gamma-3 (Homo sapiens) (UniProt Q9Y6M4). Description: Inhibition of CK1-gamma3 (unknown origin) at 0.19 uM relative to control.
Casein kinase I isoform gamma-3 (Homo sapiens), sequence (Q9Y6M4 whole entry, looked up, canonical isoform): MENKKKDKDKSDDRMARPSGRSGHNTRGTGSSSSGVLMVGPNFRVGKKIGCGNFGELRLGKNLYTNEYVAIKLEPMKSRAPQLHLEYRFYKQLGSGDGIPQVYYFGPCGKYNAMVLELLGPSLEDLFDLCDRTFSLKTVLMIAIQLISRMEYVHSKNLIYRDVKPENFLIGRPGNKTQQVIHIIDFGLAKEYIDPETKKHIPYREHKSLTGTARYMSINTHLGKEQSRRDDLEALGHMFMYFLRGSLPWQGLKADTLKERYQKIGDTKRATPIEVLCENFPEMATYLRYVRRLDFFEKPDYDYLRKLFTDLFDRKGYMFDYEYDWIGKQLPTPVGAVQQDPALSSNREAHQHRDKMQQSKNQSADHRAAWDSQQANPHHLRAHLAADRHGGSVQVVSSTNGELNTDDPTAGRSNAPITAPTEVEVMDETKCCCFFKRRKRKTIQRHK
Assay [12] has as its target T2, Protein kinase C iota type (Homo sapiens) (UniProt P41743).
T2 sequence (whole entry): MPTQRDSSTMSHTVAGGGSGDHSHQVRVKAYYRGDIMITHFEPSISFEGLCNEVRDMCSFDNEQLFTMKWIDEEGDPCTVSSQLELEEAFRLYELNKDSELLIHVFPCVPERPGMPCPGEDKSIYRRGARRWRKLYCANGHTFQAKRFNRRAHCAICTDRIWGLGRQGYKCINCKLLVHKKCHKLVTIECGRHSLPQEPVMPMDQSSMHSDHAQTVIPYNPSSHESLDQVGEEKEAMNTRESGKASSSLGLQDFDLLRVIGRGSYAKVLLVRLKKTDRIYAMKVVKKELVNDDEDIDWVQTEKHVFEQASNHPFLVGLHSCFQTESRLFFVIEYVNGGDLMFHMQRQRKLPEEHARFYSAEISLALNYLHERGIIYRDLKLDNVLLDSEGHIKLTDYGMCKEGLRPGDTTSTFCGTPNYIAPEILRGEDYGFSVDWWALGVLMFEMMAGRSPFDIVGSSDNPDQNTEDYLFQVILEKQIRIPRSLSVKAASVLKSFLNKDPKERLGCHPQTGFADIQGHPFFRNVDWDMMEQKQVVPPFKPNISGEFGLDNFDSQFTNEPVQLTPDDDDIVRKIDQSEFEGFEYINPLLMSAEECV
The assay can be described thus: Inhibition of PKC-iota (unknown origin) at 0.19 uM relative to control.

In assay [13] the target is Serine/threonine-protein kinase BRSK2 (Homo sapiens) (UniProt Q8IWQ3). Description: Inhibition of BRSK2 (unknown origin) at 0.19 uM relative to control.
Serine/threonine-protein kinase BRSK2 (Homo sapiens), sequence (Q8IWQ3 whole entry): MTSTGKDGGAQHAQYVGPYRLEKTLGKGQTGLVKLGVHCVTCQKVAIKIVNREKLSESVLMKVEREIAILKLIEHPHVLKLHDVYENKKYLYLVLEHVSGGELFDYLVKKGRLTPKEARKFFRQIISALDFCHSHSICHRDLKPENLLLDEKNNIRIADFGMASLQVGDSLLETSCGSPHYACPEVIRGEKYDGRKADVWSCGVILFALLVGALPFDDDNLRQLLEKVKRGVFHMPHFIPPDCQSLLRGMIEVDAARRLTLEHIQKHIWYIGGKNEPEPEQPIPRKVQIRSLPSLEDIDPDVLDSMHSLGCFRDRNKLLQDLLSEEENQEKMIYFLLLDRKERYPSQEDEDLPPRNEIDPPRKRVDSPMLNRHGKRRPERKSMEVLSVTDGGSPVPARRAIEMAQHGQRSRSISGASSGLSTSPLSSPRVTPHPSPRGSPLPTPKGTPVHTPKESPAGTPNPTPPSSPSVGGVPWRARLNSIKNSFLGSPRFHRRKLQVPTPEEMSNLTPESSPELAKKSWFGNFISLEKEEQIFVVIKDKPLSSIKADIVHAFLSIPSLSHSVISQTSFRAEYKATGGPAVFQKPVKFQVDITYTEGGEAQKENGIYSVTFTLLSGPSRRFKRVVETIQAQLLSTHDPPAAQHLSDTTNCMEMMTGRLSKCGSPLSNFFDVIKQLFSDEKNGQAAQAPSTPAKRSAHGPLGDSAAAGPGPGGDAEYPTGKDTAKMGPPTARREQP
For assay [14], the target named is RAC-beta serine/threonine-protein kinase (Homo sapiens) (UniProt P31751). Description: Inhibition of AKT2 (unknown origin) at 0.19 uM relative to control.
RAC-beta serine/threonine-protein kinase (Homo sapiens), sequence (P31751 whole entry): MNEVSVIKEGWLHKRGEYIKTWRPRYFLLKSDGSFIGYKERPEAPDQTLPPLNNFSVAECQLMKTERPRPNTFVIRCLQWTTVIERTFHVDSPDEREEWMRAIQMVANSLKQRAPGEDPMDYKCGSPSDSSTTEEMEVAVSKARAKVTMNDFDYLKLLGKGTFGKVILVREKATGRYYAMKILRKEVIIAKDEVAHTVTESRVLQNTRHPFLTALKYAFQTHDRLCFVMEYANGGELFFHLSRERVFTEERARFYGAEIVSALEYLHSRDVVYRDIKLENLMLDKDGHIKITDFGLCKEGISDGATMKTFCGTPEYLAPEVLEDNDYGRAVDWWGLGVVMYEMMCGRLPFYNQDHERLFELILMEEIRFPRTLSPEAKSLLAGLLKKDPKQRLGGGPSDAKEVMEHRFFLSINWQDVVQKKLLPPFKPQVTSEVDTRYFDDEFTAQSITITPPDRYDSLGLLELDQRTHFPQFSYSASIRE
Assay [15] has as its target Tyrosine-protein kinase BTK (Homo sapiens) (UniProt Q06187). Description: Inhibition of BTK (unknown origin) at 0.19 uM relative to control.
The target of assay [16] is Fibroblast growth factor receptor 2 (Homo sapiens) (UniProt P21802). The assay can be described thus: Inhibition of FGFR2 (unknown origin) at 0.19 uM relative to control.
The target of assay [17] is High affinity nerve growth factor receptor (Homo sapiens) (UniProt P04629). Description: Inhibition of TRKA (unknown origin) at 0.19 uM relative to control.
In assay [18] the target is Calcium/calmodulin-dependent protein kinase type 1D (Homo sapiens) (UniProt Q8IU85). The assay can be described thus: Inhibition of CamK1d (unknown origin) at 0.19 uM relative to control.
Calcium/calmodulin-dependent protein kinase type 1D (Homo sapiens), sequence (Q8IU85 whole entry, looked up): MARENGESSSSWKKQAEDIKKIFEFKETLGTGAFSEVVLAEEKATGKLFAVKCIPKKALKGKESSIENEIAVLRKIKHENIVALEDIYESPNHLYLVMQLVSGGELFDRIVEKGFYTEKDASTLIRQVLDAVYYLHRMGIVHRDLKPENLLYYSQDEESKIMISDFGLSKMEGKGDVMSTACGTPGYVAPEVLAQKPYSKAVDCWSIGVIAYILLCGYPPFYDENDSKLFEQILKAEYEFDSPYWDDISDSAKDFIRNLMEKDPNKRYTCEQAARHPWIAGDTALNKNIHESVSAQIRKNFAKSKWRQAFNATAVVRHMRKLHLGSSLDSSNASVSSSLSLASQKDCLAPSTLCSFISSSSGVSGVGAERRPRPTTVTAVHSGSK
Assay [19] deals with T3, Tyrosine-protein kinase TXK (Homo sapiens) (UniProt P42681).
T3 sequence (whole entry): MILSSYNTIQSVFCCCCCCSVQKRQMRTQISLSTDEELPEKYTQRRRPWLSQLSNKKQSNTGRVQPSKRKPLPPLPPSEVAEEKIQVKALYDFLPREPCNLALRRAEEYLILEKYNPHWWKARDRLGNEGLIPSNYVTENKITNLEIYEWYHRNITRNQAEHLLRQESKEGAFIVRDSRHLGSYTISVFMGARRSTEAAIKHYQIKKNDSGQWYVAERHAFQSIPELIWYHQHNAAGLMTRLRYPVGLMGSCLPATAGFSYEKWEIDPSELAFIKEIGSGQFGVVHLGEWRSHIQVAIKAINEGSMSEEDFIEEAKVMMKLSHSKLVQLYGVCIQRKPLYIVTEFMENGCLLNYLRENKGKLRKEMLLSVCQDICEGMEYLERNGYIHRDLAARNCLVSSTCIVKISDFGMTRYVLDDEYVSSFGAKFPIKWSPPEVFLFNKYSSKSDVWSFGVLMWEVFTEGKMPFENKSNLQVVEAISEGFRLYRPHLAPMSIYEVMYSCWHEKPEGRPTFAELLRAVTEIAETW
Description: Inhibition of TXK (unknown origin) at 0.19 uM relative to control.

Assay [20] concerns the target AMP-activated protein kinase, AMPK (Homo sapiens) (UniProt P54646+O43741+P54619+Q9UGJ0+Q9Y478+Q13131+Q9UGI9). The assay can be described thus: Inhibition of AMPK (unknown origin) at 0.19 uM relative to control. The assay is classed as protein-complex assay.
In assay [21] the target is Tyrosine-protein kinase receptor TYRO3 (Homo sapiens) (UniProt Q06418). Description: Inhibition of TYRO3 (unknown origin) at 0.19 uM relative to control.

SMILES strings stand for the structures.

Ephrin type-A receptor 1 (Homo sapiens), sequence (P21709 whole entry): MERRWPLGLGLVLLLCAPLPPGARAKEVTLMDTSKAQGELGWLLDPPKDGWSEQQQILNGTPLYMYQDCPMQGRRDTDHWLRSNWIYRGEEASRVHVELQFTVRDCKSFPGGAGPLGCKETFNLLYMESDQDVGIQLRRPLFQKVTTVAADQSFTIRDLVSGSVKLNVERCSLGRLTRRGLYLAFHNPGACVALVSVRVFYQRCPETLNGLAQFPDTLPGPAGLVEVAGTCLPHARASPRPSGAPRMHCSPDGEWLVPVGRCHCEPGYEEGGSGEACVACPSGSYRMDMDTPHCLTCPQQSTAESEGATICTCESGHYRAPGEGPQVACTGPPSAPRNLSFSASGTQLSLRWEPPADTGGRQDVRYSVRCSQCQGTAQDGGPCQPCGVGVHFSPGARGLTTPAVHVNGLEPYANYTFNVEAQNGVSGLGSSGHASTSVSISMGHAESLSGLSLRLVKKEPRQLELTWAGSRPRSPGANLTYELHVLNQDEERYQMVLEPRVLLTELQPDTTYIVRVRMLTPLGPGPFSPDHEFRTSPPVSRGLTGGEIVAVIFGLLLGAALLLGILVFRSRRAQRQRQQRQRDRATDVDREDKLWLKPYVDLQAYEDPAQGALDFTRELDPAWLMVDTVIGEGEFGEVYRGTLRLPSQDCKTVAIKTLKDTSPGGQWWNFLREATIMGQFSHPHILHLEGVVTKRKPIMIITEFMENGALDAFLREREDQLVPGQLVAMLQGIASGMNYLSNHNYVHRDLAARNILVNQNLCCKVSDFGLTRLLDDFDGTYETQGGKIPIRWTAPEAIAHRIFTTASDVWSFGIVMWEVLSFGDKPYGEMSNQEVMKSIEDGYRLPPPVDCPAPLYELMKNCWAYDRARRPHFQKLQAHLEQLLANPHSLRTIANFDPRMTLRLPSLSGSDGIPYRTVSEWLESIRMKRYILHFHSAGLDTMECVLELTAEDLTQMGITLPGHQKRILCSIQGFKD
Ribosomal protein S6 kinase alpha-2 (Homo sapiens), sequence (Q15349 whole entry): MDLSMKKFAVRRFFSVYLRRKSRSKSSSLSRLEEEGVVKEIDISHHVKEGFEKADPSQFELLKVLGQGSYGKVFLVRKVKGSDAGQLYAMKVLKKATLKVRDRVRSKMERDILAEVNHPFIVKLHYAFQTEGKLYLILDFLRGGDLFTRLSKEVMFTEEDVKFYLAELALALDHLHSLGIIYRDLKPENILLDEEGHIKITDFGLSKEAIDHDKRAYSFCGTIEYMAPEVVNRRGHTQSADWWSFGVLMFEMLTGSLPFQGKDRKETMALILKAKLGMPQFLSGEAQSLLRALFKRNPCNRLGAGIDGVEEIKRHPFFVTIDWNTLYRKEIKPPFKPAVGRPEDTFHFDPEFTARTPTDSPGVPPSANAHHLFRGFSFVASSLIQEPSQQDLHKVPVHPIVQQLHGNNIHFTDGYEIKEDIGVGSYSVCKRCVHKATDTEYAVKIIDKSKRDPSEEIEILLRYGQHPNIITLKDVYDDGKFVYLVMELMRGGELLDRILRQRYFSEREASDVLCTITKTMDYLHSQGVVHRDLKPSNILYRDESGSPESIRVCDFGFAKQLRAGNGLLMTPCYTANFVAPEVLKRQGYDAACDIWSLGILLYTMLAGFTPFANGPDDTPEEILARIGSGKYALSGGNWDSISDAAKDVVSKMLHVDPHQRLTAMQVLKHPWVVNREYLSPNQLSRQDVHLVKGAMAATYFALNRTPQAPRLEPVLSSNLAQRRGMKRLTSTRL

Take `COC(=O)Nc1cc(-c2c(C3CC3)n[nH]c2C)cc2[nH]ncc12`: the inhibition in [1] is -2.3%; in assay [2], 4.7%; in assay [3], 5.7%; in assay [4], 7.3%; in assay [5], 1%; in [6] it was -5.7%.
For the compound `Cc1n[nH]c(C)c1-c1ccc2c(NC(=O)c3ccc(N4CCN(C)CC4)cc3)n[nH]c2c1`, the inhibition in [7] was -2%; in assay [8] it was 1.3%.
`Cc1[nH]nc(C2CC2)c1-c1ccc2c(-c3ccc(N4CCN(C)CC4)nc3)n[nH]c2c1`: the inhibition was -2.3% in assay [9]; 8% in assay [10]; 1% in assay [11]; -7% in assay [12]; 6.3% in [13]; 1% in assay [14]. Moreover, the inhibition in [15] is -1.7%; in [16], 4%; in assay [17], 37.7%; in assay [18], -1.7%; in assay [19] it was -8.3%; in assay [20], 38.7%. Besides, the inhibition in [21] was 10%.
